# In US20050152835A1, “Technetium-99M glucarate methods of use for monitoring tissues” (priority 2003, published 2005):
# Columns and labels:
# MCF7/D40 tumors = assay: Biodistribution in mice bearing MCF7/D40 tumors; assay type: in vivo, SCID mice
# Description: Tumor cell lines used. MCF7/S: Cells are parental, drug (doxorubicin) sensitive, breast carcinoma cells. MCF7/D40: Cells were generated in vitro by successive culturing parental MCF7 cells in slowly increasing concentrations of doxorubicin with a total selection time of 31 months. Twenty-eight SCID mice were studied. MCF7/S or MCF7/D40 tumors were grown for 10-14 days after subcutaneous injection of 1×10^6 cells into the right thigh. Groups of mice with the xenografted tumors included: (MCF7/S group: MIBI: n=9; GLA: n=8) and (MCF7/D40 group: MIBI: n=6; GLA: n=5).
# ^99mTc-GLA or ^99mTc-MIBI (5-8 mCi, 185-296 MBq) was injected via a jugular vein catheter. Dynamic images were acquired for 2 hours. Twenty-four projections were obtained, one from each camera. Each scintillation event within the camera's NaI crystal was registered as the digitized outputs from the camera's four photomultiplier tubes. The four photomultiplier outputs were compared to a 20-bit look-up table derived from a calibration procedure that involved moving a collimated source across the camera face.
# Tumors and organs were harvested and counted in a dose calibrator. The percent injected dose per gram (% ID/g) was calculated. Membrane preparations made from MCF7/S and MCF7/D40 tumors were immunoblotted with the mouse monoclonal antibody C219 against Pgp followed by a secondary antibody, which was detected by chemiluminescence. […] No immunodetectable MDR1 Pgp was presented in MCF7/S cells.
# [1] = system: ischemic-reperfused myocardium; assay: FASTSPECT hot spot imaging and washout kinetics in ischemic-reperfused rat heart models (IR30, IR90); assay type: in vivo; design: half-time value (t1/2) of washout, late phase / half-time value (t1/2) of washout, early phase: unit not given here; details: for GLA hot spot size (% LV): 120-min image, mean ± SEM; for GLA hot spot size (% IAR): normalized to ischemic area at risk; for averaged ratio of whole-heart hot spot activity to normal myocardial activity: two hours after injection
# Description: Ischemic-Reperfused Rat Heart Models were prepare from Male Sprague-Dawley rats (weight, 250-300 g) that were anesthetized with 1.0%-1.5% isoflurane. The model of myocardial ischemia-reperfusion was developed using know techniques. The rat was prepared by first removing the fur from the chest and neck region with electric clippers. The jugular vein was catheterized through a surgical procedure. An incision was made over the jugular furrow, and blunt and sharp dissection was used to isolate the jugular vein. A PE-10 catheter was advanced through a nick made by micro scissors and then secured by ligatures. After tracheotomy, the rats were ventilated using a volume-controlled Inspira Advanced Safety Ventilator (Harvard Apparatus, Inc.) with a mixture of oxygen and room air. Using each animal's weight, the tidal volume (1.2 mL/100 g) and respiration rate (65-70 breaths/min) were automatically calculated in Safe Range settings (Harvard Apparatus). With a left intercostals thoracotomy incision, the chest was opened at the fourth or fifth intercostal space. The pericardium was opened and the heart was exposed. A small, curved, tapered needle threaded 5-0 silk through the tissue between the pulmonary cone and the left auricular appendage. A ligature was placed around the LCA with a small amount of myocardium. The ligature was pulled tight by passing the suture through a polyethylene tubing and clamping it for coronary occlusion. After the LCA was occluded for 30 or 90 min, 30 min of reperfusion was achieved by releasing the ligature. Hydrochloride lidocaine (5%) was administered via intravenous injection and cardiac surface drop when ventricular fibrillation was induced by LCA occlusion or reflow. During the period of surgery and ischemia-reperfusion treatment, the body temperature of the animal was maintained with a heating pad. The chest of the rat was closed before the animal was imaged with FASTSPECT.
# Eighteen rats were divided into 2 groups to receive regional myocardial ischemia-reperfusion treatments. Group 1 animals (IR30, n=12 [IR=ischemia-reperfusion]) were treated by ligating the LCA for 30 min and releasing the ligature for 30 min. The LCA in group 2 animals (IR90, n=6) was ligated for 90 min and then released for 30 min.
# Radiopharmaceutical preparation; GLA kits were provided by Molecular Targeting Technologies Inc. The reagent in the vial was a sterile, nonpyrogenic, lyophilized composition of […], GLA, sodium bicarbonate, and hydrochloric acid. A vial of GLA was reconstituted by the addition of 1 mL of ^99mTc as sodium pertechnetate (no <2.59 GBq [no <70 mCi]) in accordance with the manufacturer's instructions. The solution in the vial was allowed to stand at room temperature for 15 min. ^99mTc-GLA radiochemical purity (RCP) was verified by thin-layer liquid chromatography using Gelman instant thin-layer silica gel (ITLC-SG) strips developed in saline and acetone. In the ITLC-SG strip developed by saline, ^99mTc-colloid remained at the origin while ^99mTc-GLA and ^99mTc-pertechnetate migrated near the solvent front. In the strip developed by acetone, ^99mTc-GLA and ^99mTc-colloid remained at the origin while ^99mTc-pertechnetate moved near the solvent front. The RCP of ^99mTc-GLA exceeded 95% for all experimental injections. ^99mTc-GLA was used within 3 h after preparation.
# The high-resolution stationary SPECT system, FASTSPECT, was built in the Department of Radiology Research Laboratory at The University of Arizona (as described by references 9-11 in Liu et. al, J. Nucl. Med. (2004), vol. 45, pp 1251-1259). In this system, 24 small modular γ cameras are arranged in 2 circular arrays with a cylindric aperture. […] Twenty-four 1-mm diameter pinholes were drilled in the aperture such that a point source in the center of the field of view (FOV) is simultaneously projected to the center of each camera. The dead space between adjacent cameras at the director surface is 7% of the total area. […]
# [2] = Table 2, MCF7/D40 mice, 2 hours after injection
# [3] = Table 4 (Example 3), MCF7/D40 mice
substance,measurement,setting,value
^99mTc-glucarate,tumor-to-muscle ratio relative to that for 99mTc-sestamibi (fold higher),"MCF7/D40 tumors; MCF7/D40 tumors, 2 hours after injection",19.2 fold
same,"Biodistribution, blood",MCF7/D40 tumors; [2],1.07 ± 0.14 % ID/gm
same,"Biodistribution, heart",MCF7/D40 tumors; [2],0.55 ± 0.10 % ID/gm
same,"Biodistribution, kidneys",MCF7/D40 tumors; [2],22.10 ± 1.59 % ID/gm
same,"Biodistribution, liver",MCF7/D40 tumors; [2],1.56 ± 0.18 % ID/gm
same,"Biodistribution, lung",MCF7/D40 tumors; [2],1.41 ± 0.54 % ID/gm
same,"Biodistribution, muscle",MCF7/D40 tumors; [2],0.25 ± 0.04 % ID/gm
same,"Biodistribution, tumor",MCF7/D40 tumors; [2],1.39 ± 0.12 % ID/gm
same,"Biodistribution, blood",MCF7/D40 tumors; [3],1.07 ± 0.14 % ID/g
same,"Biodistribution, heart",MCF7/D40 tumors; [3],0.55 ± 0.1 % ID/g
same,"Biodistribution, kidneys",MCF7/D40 tumors; [3],22.10 ± 1.59 % ID/g
same,"Biodistribution, liver",MCF7/D40 tumors; [3],1.56 ± 0.18 % ID/g
same,"Biodistribution, lung",MCF7/D40 tumors; [3],1.41 ± 0.54 % ID/g
same,"Biodistribution, muscle",MCF7/D40 tumors; [3],0.25 ± 0.04 % ID/g
same,"Biodistribution, tumor",MCF7/D40 tumors; [3],1.39 ± 0.12 % ID/g
same,Tumor/Blood ratio,MCF7/D40 tumors; [3],1.38 ± 0.19
same,Tumor/Muscle ratio,MCF7/D40 tumors; [3],6.23 ± 0.89
same,mean tumor-to-muscle ratio,MCF7/D40 tumors; drug-resistant tumors (MCF7/D40),6.2
same,GLA hot spot size (% LV),[1]; IR30 (n = 12),28.4 ± 2.1 % LV
same,GLA hot spot size (% IAR),[1]; IR30 (n = 12),58.4 ± 2.7 % IAR
same,time after injection the infarct remained well defined,[1]; IR30 and IR90 hearts,at least 120 min
same,"hot spot/normal ratio in group 1 (IR30) relative to group 2 (IR90), fold lower",[1]; IR30 vs IR90,1.94 fold
same,GLA hot spot size (% LV),[1]; IR90 (n = 6),42.0 ± 2.6 % LV
same,GLA hot spot size (% IAR),[1]; IR90 (n = 6),75.9 ± 2.7 % IAR
same,final ratio of hot spot to normal myocardial activity,[1]; group 1 (IR30),4.91±0.71
same,averaged ratio of whole-heart hot spot activity to normal myocardial activity,[1]; group 1 (IR30),4.1±0.3
same,final ratio of hot spot to normal myocardial activity,[1]; group 2 (IR90),9.53±1.76
same,averaged ratio of whole-heart hot spot activity to normal myocardial activity,[1]; group 2 (IR90),7.1±1.1
same,"half-time value (t1/2) of washout, early phase","[1]; hot spot, IR30",2.4±0.4
same,"half-time value (t1/2) of washout, late phase","[1]; hot spot, IR30",216.3±23.8
same,fractional retention (% peak) by the end of experiment,"[1]; hot spot, IR30 (30-min LCA occlusion, 30-min reperfusion), 2 h",31.0±1.3 % peak
same,"half-time value (t1/2) of washout, early phase","[1]; hot spot, IR90",3.8±1.1
same,"half-time value (t1/2) of washout, late phase","[1]; hot spot, IR90",511.5±74.2
same,fractional retention (% peak) by the end of experiment,"[1]; hot spot, IR90 (90-min LCA occlusion, 30-min reperfusion), 2 h",42.1±4.0 % peak
same,"half-time value (t1/2) of washout, early phase","[1]; normal zone, IR30",1.6±0.4
same,"half-time value (t1/2) of washout, late phase","[1]; normal zone, IR30",66.6±5.5
same,fractional retention (% peak) by the end of experiment,"[1]; normal zone, IR30, 2 h",7.5±1.0 % peak
same,"half-time value (t1/2) of washout, early phase","[1]; normal zone, IR90",2.0±0.2
same,"half-time value (t1/2) of washout, late phase","[1]; normal zone, IR90",49.1±2.9
same,fractional retention (% peak) by the end of experiment,"[1]; normal zone, IR90, 2 h",6.4±0.9 % peak
